Consider two molecules from patent US20060025449A1, “Use of N-substituted imino sugars for appetite suppression” (priority 2004, published 2006).

The structures appear in SMILES notation. “Also recorded” adds a separate entry of the source.

One assay deals with lean control mouse. Kind of assay: Single intracerebroventricular (ICV) injection, food intake and weight change after 24 hours. Type of assay: in vivo. As to conditions: 2 nmol ICV, 24 hours. The protocol:
To investigate a central anorexigenic mechanism for weight loss in mice treated with NB-DNJ, single intracerebro-ventricular (ICV) injections were performed. The mice were assessed for food intake and weight change. Mice were anesthetized with isofluorane (4%) delivered by a vaporiser. Upon achievement of a surgical plane of anaesthesia, the animal was transferred to and secured in a Kopf small animal ultra precise stereotaxic instrument (David Kopf Instruments, Tujunga, Calif., USA) fitted with rat ear bars, mouse adaptor and mouse anaesthesia mask. A small amount of lignocaine local anaesthetic gel was applied to the ear bars to reduce any post-operative discomfort. For the remainder of the procedure, anaesthesia was maintained with 2.5% isofluorane. Lacrilube (Allergan Ltd, High Wycombe, UK) was applied to the mouse's eyes and a subcutaneous injection of the non-steroidal anti-inflammatory drug, Rimadyl (Pfizer, Sandwich, Kent, UK) was given for post-operative analgesia. For ICV injections, a small scalpel incision was made along the midline of the scalp from above the eyes to the occiput. A small hole was drilled in the skull, 1 mm lateral and 0.34 mm posterior to Bregma. 1 μl solution was slowly infused into the lateral ventricle at a depth of 2.25 mm, via a glass needle pipette pulled to a thickness of less than 100 microns at the tip. Mice were injected with 2 nmol compound (NB-DNJ, NB-DGJ or 2-deoxy glucose) in isotonic saline vehicle which was injected into controls. The incision was then closed using VetBond acrylic suture fluid (3M Animal Care Products, St Paul, Minn., USA). The whole procedure from induction of anaesthesia to full recovery lasted less than seven minutes. Mice were allowed free access to a pre-weighed quantity of RM1 pellet diet with water provided ad libitum. 24 hours following ICV injection the mice and remaining diet were weighed. To confirm a central anorectic effect of NB-DNJ, 2 nmol NB-DNJ, NB-DGJ and 2 deoxyglucose were injected directly into the lateral cerebral ventricle of lean control mouse brain (approximately 100 μM final cerebro-ventricular concentration). Mice injected with both saline vehicle and NB-DGJ ate a normal quantity of pellet diet in the following 24 hours (FIG. 9), approximately 5% less in this experiment than that seen in control mice in FIG. 7 (not statistically significant). In contrast, NB-DNJ-injected mice ate 20% less (p<0.02 for both saline and NB-DGJ) and 2-deoxy-glucose injections caused a 10% increase in feeding. 2-deoxy-glucose is a mild appetite stimulant in the short-term. Tsutsui et al., Physiol Behav 31, 493-502. In contrast, NB-DGJ had no effect, as expected.

A further assay deals with C57B1/6 mice. The experiment in a line: Effect of imino sugars admixed with diet on growth of normal control mice. The settings on record: 2400 mg/kg/day in diet. Type of assay: in vivo, mouse. The procedure:
Control C57B1/6 and C57BL/6O1aHsd-Lep ob mice were obtained from Harlan, UK at five weeks of age. The mice were housed under standard non-sterile conditions and fed a diet of mouse chow pelleted or expanded ground RM1 diet (SDS Ltd, Witham, Essex) with water available ad libitum. For dietary treatment of the mice with NB-DNJ or NB-DGJ, the diet and compound were admixed thoroughly as dry solids, stored at room temperature and used within 7 days. Unless indicated otherwise, mice were treated with a dose of 2400 mg/kg body weight per day, assuming an intake of around 5 g diet/day. Mice were maintained on diet with or without compound for up to six months of age and were weighed at regular intervals during the course of the experiment (see figure legends for group sizes and further experimental details). To study the effect of compound on obese mice, three groups (n=5) of ob/ob mice were monitored from five weeks of age. One group acted as control and were fed ground RM1 diet. At 6 weeks of age, the second group was started on NB-DNJ in the diet, whilst the third group started drug treatment at 12 weeks of age. All mice were then monitored for up to six months of age. […] In the first week of treatment, mice with NB-DNJ in their diet lost about 10% of their total body mass. Over the course of the following weeks, their weight stabilises. By 5 weeks of treatment they weighed 25% less than the controls. They then started to gain weight. However, after 10 weeks they remained 20% less in mass when compared with the age and sex-matched control group.

For a further assay, the system named is control lean mice. The experiment in a line: ICV mini-pump implants, long-term intracerebro-ventricular delivery. The assay is classed as in vivo, mouse. As to conditions: ICV mini-pump 500 mM, first 24 hours. The procedure:
FIG. 11. Control lean mice (n=5 in each group) had icv minipumps (50 mM imino sugar) implanted. Body weight was the monitored at regular intervals over three weeks. See example 7 for further experimental details. The effect of long-term intracerebro-ventricular delivery of imino sugars was determined by the implantation of Alzet mini-osmotic pumps (model 2004, DURECT Corporation, CA, USA) together with the brain infusion kit II which features a high stability low profile cannula. The mini-pumps were loaded with 0.24 ml imino sugar or saline vehicle. The indwelling 28 gauge stainless steel cannula was cut to a length of 2.25 mm. Mice were anaesthetised as for the ICV injections and underwent similar surgical procedures throughout. After drilling a small hole in the cranium at the midline, 2 mm posterior to Bregma, the mini-pump was positioned subcutaneously in the animal's flank and the cannula was implanted. This position and depth ensured delivery to the third cerebral ventricle. The implant was secured to the cranium using VetBond acrylic suture fluid, which was also used to close the surgical wound. The whole procedure lasted less than 9 minutes and mice were fully conscious and recovered within three minutes. For concentration of imino sugar in mini-pumps see figure legends.

`O=CC[C@@H](O)[C@H](O)[C@H](O)CO` [2-deoxy-glucose, 2-deoxyglucose] returned an increase in feeding in the assay with lean control mouse of 10%.
As for `CCCCN1C[C@H](O)[C@@H](O)[C@@H](O)[C@H]1CO` [NB-DGJ], the “effect on growth / body weight” value in the assay with C57B1/6 mice is recorded as “did not lose weight; also recorded: no discernible effect”. In the assay on lean control mouse, the “effect on food intake” value was “no effect”. The “ate less than control mice of FIG. 7” value in the assay on lean control mouse (not statistically significant) is given as “approximately 5%”. In addition, in the assay with control lean mice, the “effect on dietary intake” value is given as “no statistically significant effect” and the “effect on weight change” value was “no statistically significant effect”.
